In the NIST ThermoML archive (doi:10.1016/j.jct.2019.05.010):
Where “and” joins values, the source holds several entries; their conditions need not be identical. Equal entries are not always repeated. ± gives the expanded uncertainty stated by the source.

Key:
[1] = 101.33 kPa, Crystal, Vacuum adiabatic calorimetry
[2] = molar heat capacity at constant pressure; conditions: 101.33 kPa, Crystal, Vacuum adiabatic calorimetry

CC(=O)[CH-]C(C)=O.CC(=O)[CH-]C(C)=O.[Cu+2] [bis(2,4-pentanedionato-O,O')copper]
Conditions | molar entropy, [1] [J/K/mol] | molar heat capacity at constant pressure, [2]
5 K | 0.229 ± 0.017 | 0.667 ± 0.026 J/K/mol
6.54 K | – | 1.427 ± 0.043 J/K/mol
9.03 K | – | 3.433 ± 0.095 J/K/mol
10 K | 1.632 ± 0.068 | 4.4 ± 0.13 J/K/mol
11.38 K | – | 6.016 ± 0.16 J/K/mol
13.66 K | – | 9.127 ± 0.24 J/K/mol
15 K | 4.62 ± 0.19 | 11.23 ± 0.31 J/K/mol
16.64 K | – | 13.96 ± 0.37 J/K/mol
20 K | 9.07 ± 0.37 | 20.52 ± 0.16 J/K/mol and 20.5 ± 0.15 J/K/mol
22.84 K | – | 26.59 ± 0.19 J/K/mol
25 K | 14.79 ± 0.4 | 31.33 ± 0.21 J/K/mol
25.85 K | – | 33.31 ± 0.23 J/K/mol
29.17 K | – | 40.64 ± 0.27 J/K/mol
30 K | 21.5 ± 0.46 | 42.65 ± 0.28 J/K/mol
32.85 K | – | 49.04 ± 0.31 J/K/mol
35 K | 28.92 ± 0.55 | 53.76 ± 0.34 J/K/mol
36.85 K | – | 57.9 ± 0.37 J/K/mol
40 K | 36.8 ± 0.61 | 64.51 ± 0.4 J/K/mol
40.6 K | – | 65.62 ± 0.41 J/K/mol
44.11 K | – | 72.98 ± 0.46 J/K/mol
45 K | 44.99 ± 0.68 | 74.72 ± 0.46 J/K/mol
48.18 K | – | 80.84 ± 0.51 J/K/mol
50 K | 53.37 ± 0.77 | 84.29 ± 0.52 J/K/mol
52.32 K | – | 88.52 ± 0.55 J/K/mol
55 K | 61.8 ± 0.9 | 93.1 ± 0.58 J/K/mol
56.3 K | – | 95.12 ± 0.59 J/K/mol
60 K | 70.3 ± 0.9 | 101 ± 0.6 J/K/mol
60.23 K | – | 101.6 ± 0.6 J/K/mol
64.13 K | – | 107 ± 0.7 J/K/mol
65 K | 78.6 ± 0.9 | 108.3 ± 0.6 J/K/mol
68.13 K | – | 112.6 ± 0.7 J/K/mol
70 K | 86.9 ± 1.2 | 115.1 ± 0.6 J/K/mol
72.3 K | – | 118.2 ± 0.7 J/K/mol
76.49 K | – | 123.2 ± 0.8 J/K/mol
80 K | 103.1 ± 1.2 | 127.4 ± 0.6 J/K/mol
80.07 K | – | 127.4 ± 0.5 J/K/mol
80.38 K | – | 128 ± 0.5 J/K/mol
85.04 K | – | 132.9 ± 0.5 J/K/mol
89.68 K | – | 137.8 ± 0.5 J/K/mol
90 K | 118.8 ± 1.2 | 138.1 ± 0.6 J/K/mol
94.05 K | – | 142.1 ± 0.5 J/K/mol
98.21 K | – | 146 ± 0.5 J/K/mol
100 K | 133.8 ± 1.3 | 147.6 ± 0.7 J/K/mol
102.43 K | – | 149.8 ± 0.5 J/K/mol
106.73 K | – | 153.5 ± 0.6 J/K/mol
110 K | 148.3 ± 1.5 | 156.4 ± 0.7 J/K/mol
110.87 K | – | 157.3 ± 0.6 J/K/mol
115.52 K | – | 160.9 ± 0.6 J/K/mol
120 K | 162.3 ± 1.5 | 164.5 ± 0.7 J/K/mol
120.66 K | – | 165 ± 0.6 J/K/mol
125.63 K | – | 169 ± 0.6 J/K/mol
130 K | 175.7 ± 1.6 | 172.1 ± 0.7 J/K/mol
130.45 K | – | 172.4 ± 0.6 J/K/mol
135.15 K | – | 176 ± 0.6 J/K/mol
139.73 K | – | 179.1 ± 0.6 J/K/mol
140 K | 188.8 ± 1.6 | 179.4 ± 0.7 J/K/mol
144.22 K | – | 182.5 ± 0.6 J/K/mol
148.61 K | – | 185.6 ± 0.7 J/K/mol
150 K | 201.4 ± 1.9 | 186.6 ± 0.7 J/K/mol
152.93 K | – | 188.8 ± 0.7 J/K/mol
157.17 K | – | 191.5 ± 0.7 J/K/mol
160 K | 213.6 ± 1.9 | 193.5 ± 0.7 J/K/mol
161.35 K | – | 194.4 ± 0.7 J/K/mol
165.97 K | – | 197.3 ± 0.7 J/K/mol
170 K | 225.6 ± 1.9 | 199.8 ± 0.7 J/K/mol
171.03 K | – | 200.5 ± 0.7 J/K/mol
176 K | – | 203.5 ± 0.7 J/K/mol
180 K | 237.2 ± 1.9 | 206.2 ± 0.7 J/K/mol
180.9 K | – | 206.9 ± 0.7 J/K/mol
185.74 K | – | 210.1 ± 0.7 J/K/mol
190 K | 248.5 ± 1.9 | 213 ± 0.7 J/K/mol
190.5 K | – | 213.3 ± 0.7 J/K/mol
195.21 K | – | 216.6 ± 0.8 J/K/mol
199.87 K | – | 219.6 ± 0.8 J/K/mol
200 K | 259.6 ± 1.9 | 219.6 ± 0.9 J/K/mol
204.46 K | – | 222.6 ± 0.8 J/K/mol
209.01 K | – | 225.1 ± 0.8 J/K/mol
210 K | 270.5 ± 2.2 | 225.9 ± 0.9 J/K/mol
213.51 K | – | 228.2 ± 0.8 J/K/mol
217.97 K | – | 231.3 ± 0.8 J/K/mol
220 K | 281.1 ± 2.2 | 232.5 ± 0.9 J/K/mol
222.38 K | – | 234.3 ± 0.8 J/K/mol
226.74 K | – | 236.8 ± 0.8 J/K/mol
230 K | 291.6 ± 2.2 | 238.9 ± 0.9 J/K/mol
231.06 K | – | 239.5 ± 0.8 J/K/mol
235.35 K | – | 242.2 ± 0.8 J/K/mol
239.58 K | – | 245.1 ± 0.8 J/K/mol
240 K | 301.9 ± 2.2 | 245.4 ± 0.9 J/K/mol
243.77 K | – | 247.8 ± 0.9 J/K/mol
248.11 K | – | 250.8 ± 0.9 J/K/mol
250 K | 312.1 ± 2.2 | 252 ± 0.9 J/K/mol
252.68 K | – | 253.8 ± 0.9 J/K/mol
257.27 K | – | 256.6 ± 0.9 J/K/mol
260 K | 322.1 ± 2.2 | 258.5 ± 0.9 J/K/mol
261.9 K | – | 259.8 ± 0.9 J/K/mol
266.49 K | – | 262.7 ± 0.9 J/K/mol
270 K | 331.9 ± 2.5 | 265.2 ± 0.9 J/K/mol
271.04 K | – | 266.1 ± 0.9 J/K/mol
275.54 K | – | 268.5 ± 0.9 J/K/mol
280 K | 341.7 ± 2.5 | 271.7 ± 0.9 J/K/mol
280.45 K | – | 272.3 ± 0.9 J/K/mol
285.75 K | – | 275.1 ± 0.9 J/K/mol
290 K | 351.4 ± 2.5 | 278.3 ± 0.9 J/K/mol
291 K | – | 279 ± 1 J/K/mol
296.16 K | – | 282.5 ± 1 J/K/mol
298.15 K | 359.1 ± 2.5 | 283.9 ± 1.1 J/K/mol
300 K | 360.9 ± 2.5 | 285.2 ± 1.1 J/K/mol
300.51 K | – | 285.7 ± 1 J/K/mol
304.76 K | – | 288.6 ± 1 J/K/mol
308.97 K | – | 291.5 ± 1 J/K/mol
310 K | 370.4 ± 2.5 | 292.4 ± 1.1 J/K/mol
313 K | 373.2 ± 2.5 | 294.5 ± 1.1 J/K/mol
313.16 K | – | 294.6 ± 1 J/K/mol
